PubChem BioAssay (NCI)
Values joined by “and” are separate entries in the source; they are usually repeats but may differ in a detail not shown here. Equal values may be shown once.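 Exposure lasted 48 hours, with cells grown in 96-well plates and compounds tested at five concentrations. Here, GI50 denotes the concentration required for 50% inhibition of growth. TGI: concentration producing complete growth inhibition.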

Legend:
Assay in all cases: inhibition of tumour cell growth, NCI panel, 48 h
PC-3 prostate = test system: PC-3 prostate
NCI/ADR-RES ovarian = test system: NCI/ADR-RES ovarian
SF-539 CNS = test system: SF-539 CNS
OVCAR-4 ovarian = test system: OVCAR-4 ovarian
CCRF-CEM leukemia = test system: CCRF-CEM leukemia
COLO 205 colon = test system: COLO 205 colon
U251 CNS = test system: U251 CNS
MDA-MB-435 = test system: MDA-MB-435
HCT-15 colon = test system: HCT-15 colon
OVCAR-5 ovarian = test system: OVCAR-5 ovarian

## O=C(c1ccccc1)c1ccc(-c2ccc(O)cc2)cc1
PC-3 prostate
  GI50: 9.19 µM
  TGI: 58 µM
NCI/ADR-RES ovarian
  GI50: 5.18 µM
  TGI: 54.9 µM
SF-539 CNS
  GI50: 14.6 µM
  TGI: 56.9 µM
OVCAR-4 ovarian
  GI50: 5.87 µM
  TGI: > 100 µM
CCRF-CEM leukemia
  GI50: 0.533 µM
  TGI: > 23.9 µM
COLO 205 colon
  GI50: 19.4 µM
  TGI: 45.9 µM
U251 CNS
  GI50: 3.69 µM
  TGI: 20.1 µM
MDA-MB-435
  GI50: 0.328 µM
  TGI: 1.55 µM
HCT-15 colon
  GI50: 5 µM
  TGI: 27.7 µM
OVCAR-5 ovarian
  GI50: 31 µM
  TGI: > 100 µM

## COC1/C=C/O[C@@]2(C)Oc3c(C)c(O)c4c(O)c(cc(O)c4c3C2=O)NC(=O)/C(C)=C\C=C\[C@H](C)C(O)[C@@H](C)[C@@H](O)[C@@H](C)[C@H](OC(C)=O)[C@@H]1C (some centres undefined)
PC-3 prostate
  GI50: 7.74 µM
  TGI: 20.4 µM and 34 µM
NCI/ADR-RES ovarian
  GI50: 24 µM
  TGI: 59.7 µM and 86 µM
SF-539 CNS
  GI50: 3.41 µM
  TGI: 12.5 µM and 69.3 µM
OVCAR-4 ovarian
  GI50: 16 µM
  TGI: 30.6 µM and 28.3 µM
CCRF-CEM leukemia
  GI50: 0.504 µM
  TGI: 4.07 µM and 32.6 µM
COLO 205 colon
  GI50: 4.25 µM
  TGI: 15.5 µM and 10.6 µM
U251 CNS
  GI50: 16.5 µM
  TGI: 30.1 µM and 116 µM
MDA-MB-435
  GI50: 17.2 µM
  TGI: 31.6 µM and 40.4 µM
HCT-15 colon
  GI50: 20.9 µM
  TGI: 35.1 µM and 49.8 µM
OVCAR-5 ovarian
  TGI: 80.1 µM

## CCC(=O)Sc1ccccc1C(=O)Nc1ccc(Cl)cc1
PC-3 prostate
  GI50: 10.8 µM
  TGI: 56.3 µM
NCI/ADR-RES ovarian
  GI50: 6.45 µM
  TGI: 38 µM
SF-539 CNS
  GI50: 11.2 µM
  TGI: 30.5 µM
OVCAR-4 ovarian
  GI50: 13.1 µM
  TGI: > 100 µM
CCRF-CEM leukemia
  GI50: 4.22 µM
  TGI: > 100 µM
COLO 205 colon
  GI50: 13.6 µM
  TGI: 32.1 µM
U251 CNS
  GI50: 5.73 µM
  TGI: 32.3 µM
MDA-MB-435
  GI50: 6.92 µM
  TGI: 39.9 µM
HCT-15 colon
  GI50: 7.79 µM
  TGI: > 100 µM
OVCAR-5 ovarian
  GI50: 15.9 µM
  TGI: 33.2 µM

## Cc1oc2ccccc2c(=O)c1Cn1nnc2ccccc21
PC-3 prostate
  TGI: > 100 µM
NCI/ADR-RES ovarian
  TGI: > 100 µM
SF-539 CNS
  TGI: > 100 µM
OVCAR-4 ovarian
  TGI: > 100 µM
CCRF-CEM leukemia
  TGI: > 100 µM
COLO 205 colon
  TGI: > 100 µM
U251 CNS
  TGI: > 100 µM
MDA-MB-435
  TGI: > 100 µM
HCT-15 colon
  TGI: > 100 µM
OVCAR-5 ovarian
  TGI: > 100 µM

## C=CC1CC12C(=O)C1OC2(C)C2C(=O)c3ccccc3C(=O)C12 (centres undefined)
PC-3 prostate
  GI50: 54.7 µM
  TGI: > 100 µM
NCI/ADR-RES ovarian
  GI50: > 43.6 µM
  TGI: > 70.9 µM
SF-539 CNS
  GI50: > 82 µM
  TGI: > 100 µM
OVCAR-4 ovarian
  GI50: 31.5 µM
  TGI: > 100 µM
CCRF-CEM leukemia
  GI50: 39.2 µM
  TGI: > 93.9 µM
COLO 205 colon
  GI50: > 100 µM
  TGI: > 100 µM
U251 CNS
  GI50: 38.7 µM
  TGI: > 100 µM
MDA-MB-435
  GI50: > 40.1 µM
  TGI: > 54.4 µM
HCT-15 colon
  GI50: 41.9 µM
  TGI: > 100 µM
OVCAR-5 ovarian
  GI50: > 54.7 µM
  TGI: > 88.5 µM

## Cc1ccc(NS(=O)(=O)c2ccc(-c3cnc(C4CC4)o3)cc2)cc1
PC-3 prostate
  GI50: 3.27 µM
  TGI: 16.3 µM
NCI/ADR-RES ovarian
  GI50: 1.61 µM
  TGI: 7.79 µM
SF-539 CNS
  GI50: 3.32 µM
  TGI: 13 µM
OVCAR-4 ovarian
  GI50: 3.87 µM
  TGI: 17.6 µM
CCRF-CEM leukemia
  GI50: 3.31 µM
  TGI: 34.6 µM
COLO 205 colon
  GI50: 3.64 µM
  TGI: 16.1 µM
U251 CNS
  GI50: 4.18 µM
  TGI: 17.5 µM
MDA-MB-435
  GI50: 0.879 µM
  TGI: 3.94 µM
HCT-15 colon
  GI50: 1.48 µM
  TGI: 13.1 µM
OVCAR-5 ovarian
  GI50: 9.28 µM
  TGI: 22.6 µM

## COC1=CC(c2ccc[nH]2)=N/C1=C\c1[nH]c(C)c(C(=O)CCC(=O)Oc2ccc3c(c2)CCC2C3CC[C@]3(C)C(=O)CC[C@@H]23)c1C (some centres undefined)
PC-3 prostate
  GI50: 6.52 µM
  TGI: > 100 µM
NCI/ADR-RES ovarian
  GI50: 12.6 µM
  TGI: > 100 µM
SF-539 CNS
  GI50: 14.3 µM
  TGI: > 100 µM
OVCAR-4 ovarian
  GI50: 13.1 µM
  TGI: > 100 µM
CCRF-CEM leukemia
  GI50: 0.527 µM
  TGI: > 100 µM
COLO 205 colon
  GI50: 21.5 µM
  TGI: > 100 µM
U251 CNS
  GI50: 3.31 µM
  TGI: > 86.7 µM
MDA-MB-435
  GI50: 7.7 µM
  TGI: > 100 µM
HCT-15 colon
  GI50: 2.52 µM
  TGI: > 61.8 µM
OVCAR-5 ovarian
  GI50: 7.88 µM
  TGI: > 81.6 µM

## CO/N=C(\c1ccccc1)c1cnn(-c2ccccc2)c1N
PC-3 prostate
  GI50: > 25 µM
  TGI: > 25 µM
NCI/ADR-RES ovarian
  GI50: > 25 µM
  TGI: > 25 µM
SF-539 CNS
  GI50: > 25 µM
  TGI: > 25 µM
OVCAR-4 ovarian
  GI50: > 25 µM
  TGI: > 25 µM
CCRF-CEM leukemia
  GI50: > 25 µM
  TGI: > 25 µM
COLO 205 colon
  GI50: > 25 µM
  TGI: > 25 µM
U251 CNS
  GI50: > 25 µM
  TGI: > 25 µM
MDA-MB-435
  GI50: > 25 µM
  TGI: > 25 µM
HCT-15 colon
  GI50: > 25 µM
  TGI: > 25 µM
OVCAR-5 ovarian
  GI50: > 25 µM
  TGI: > 25 µM

## O=C1C(=O)c2ccc(Br)cc2-c2cc(Br)ccc21
PC-3 prostate
  GI50: 20.3 µM
  TGI: > 96.6 µM
NCI/ADR-RES ovarian
  GI50: 1.59 µM
  TGI: 8.12 µM
SF-539 CNS
  GI50: 8.43 µM
  TGI: 26.3 µM
OVCAR-4 ovarian
  GI50: 0.274 µM
  TGI: 0.696 µM
CCRF-CEM leukemia
  GI50: 0.553 µM
  TGI: 1.83 µM
COLO 205 colon
  GI50: > 100 µM
  TGI: > 100 µM
U251 CNS
  GI50: 1.42 µM
  TGI: 9.04 µM
MDA-MB-435
  GI50: 1.76 µM
  TGI: 4.07 µM
HCT-15 colon
  GI50: 1.28 µM
  TGI: > 35 µM
OVCAR-5 ovarian
  GI50: > 41.6 µM
  TGI: > 62.2 µM

## COc1cc2c(cc1OC)C13CCN4CC5=CCOC(CC(=O)O)C(C5CC41)C3N2 (centres undefined)
PC-3 prostate
  TGI: > 100 µM
NCI/ADR-RES ovarian
  TGI: > 100 µM
SF-539 CNS
  TGI: > 100 µM
OVCAR-4 ovarian
  TGI: > 100 µM
CCRF-CEM leukemia
  TGI: > 100 µM
COLO 205 colon
  TGI: > 100 µM
U251 CNS
  TGI: > 100 µM
MDA-MB-435
  TGI: > 100 µM
HCT-15 colon
  TGI: > 100 µM
OVCAR-5 ovarian
  TGI: > 100 µM
